Tests used:
[1] = In vivo biodistribution in mice; design: species or system normal CD-1 male mice; conditions: iv
Experimental: Biodistribution experiments were performed by intravenously administering ^68Ga labeled 1a-h, 2, 3, BPAMD, and [^18F]NaF into normal, healthy male CD-1 mice (25-30 g). The injection activity was 20-30 μCi/animal. […] Organs of interest were harvested, weighed, and counts of radioactivity were measured by a gamma counter. The biodistribution of each sample was calculated as a percentage of the injected dose per gram of wet tissue weight (% ID/g). Tibia and femur bones were harvested and counted as bone samples.

[2] = In vitro binding to hydroxyapatite; conditions: 20 mg hydroxyapatite in saline, 10 min at room temperature
Experimental: Hydroxyapatite (20 mg, Sigma-Aldrich, reagent grade powder) was incubated in isotonic saline (1 mL) for 24 h. Subsequently, either ^68Ga labeled 1a-h, 2, 3, BPAMD, or [^18F]NaF (1 μCi) was added to the hydroxyapatite suspension. After vortexing for 10 seconds, the suspension was incubated for 10 min at room temperature. The samples were then centrifuged at 10,000 rpm for 3 min and the supernatant was removed. The hydroxyapatite fraction was washed twice with saline (1 mL). Radioactivity in the combined supernatants and the hydroxyapatite fraction was measured using a gamma counter. The proportion of the ^68Ga complex binding to hydroxyapatite was determined as percent of ^68Ga absorbed to hydroxyapatite.

SMILES: O=C([O-])CN(CCN(CC(=O)[O-])Cc1cc(CCC(=O)N[C@@H](CC(=O)O)C(=O)O)ccc1[O-])Cc1cc(CCC(=O)NC(P(=O)(O)O)P(=O)(O)O)ccc1[O-].[68Ga+3] [[^68Ga]1e]
- bone to blood ratio ([1]; 2 min): 1
- bone to muscle ratio ([1]; 2 min): 5
- Biodistribution: Blood ([1]; 2 min post injection): 8.31 ± 0.57 % dose/g
- Biodistribution: Bone ([1]; 2 min post injection): 8.82 ± 0.77 % dose/g
- Biodistribution: Brain ([1]; 2 min post injection): 0.20 ± 0.04 % dose/g
- Biodistribution: Heart ([1]; 2 min post injection): 2.55 ± 0.06 % dose/g
- Biodistribution: Kidney ([1]; 2 min post injection): 24.8 ± 3.02 % dose/g
- Biodistribution: Liver ([1]; 2 min post injection): 1.90 ± 0.13 % dose/g
- Biodistribution: Lung ([1]; 2 min post injection): 4.00 ± 0.20 % dose/g
- Biodistribution: Muscle ([1]; 2 min post injection): 1.71 ± 0.19 % dose/g
- Biodistribution: Pancreas ([1]; 2 min post injection): 1.27 ± 0.07 % dose/g
- Biodistribution: Skin ([1]; 2 min post injection): 2.54 ± 0.26 % dose/g
- Biodistribution: Spleen ([1]; 2 min post injection): 1.72 ± 0.19 % dose/g
- bone to blood ratio ([1]; 30 min): 29
- bone to muscle ratio ([1]; 30 min): 67
- Biodistribution: Blood ([1]; 30 min (0.5 hr) post injection): 0.57 ± 0.12 % dose/g
- Biodistribution: Bone ([1]; 30 min (0.5 hr) post injection): 16.5 ± 0.56 % dose/g
- Biodistribution: Brain ([1]; 30 min (0.5 hr) post injection): 0.02 ± 0.01 % dose/g
- Biodistribution: Heart ([1]; 30 min (0.5 hr) post injection): 0.26 ± 0.04 % dose/g
- Biodistribution: Kidney ([1]; 30 min (0.5 hr) post injection): 2.26 ± 0.27 % dose/g
- Biodistribution: Liver ([1]; 30 min (0.5 hr) post injection): 0.27 ± 0.02 % dose/g
- Biodistribution: Lung ([1]; 30 min (0.5 hr) post injection): 0.42 ± 0.08 % dose/g
- Biodistribution: Muscle ([1]; 30 min (0.5 hr) post injection): 0.25 ± 0.03 % dose/g
- Biodistribution: Pancreas ([1]; 30 min (0.5 hr) post injection): 0.17 ± 0.05 % dose/g
- Biodistribution: Skin ([1]; 30 min (0.5 hr) post injection): 0.86 ± 0.22 % dose/g
- Biodistribution: Spleen ([1]; 30 min (0.5 hr) post injection): 0.19 ± 0.02 % dose/g
- bone to blood ratio ([1]; 60 min): 138
- bone to muscle ratio ([1]; 60 min): 258
- Biodistribution: Blood ([1]; 60 min (1 hr) post injection): 0.11 ± 0.02 % dose/g
- Biodistribution: Bone ([1]; 60 min (1 hr) post injection): 14.9 ± 1.45 % dose/g
- Biodistribution: Brain ([1]; 60 min (1 hr) post injection): 0.01 ± 0.00 % dose/g
- Biodistribution: Heart ([1]; 60 min (1 hr) post injection): 0.08 ± 0.00 % dose/g
- Biodistribution: Kidney ([1]; 60 min (1 hr) post injection): 2.12 ± 0.55 % dose/g
- Biodistribution: Liver ([1]; 60 min (1 hr) post injection): 0.14 ± 0.01 % dose/g
- Biodistribution: Lung ([1]; 60 min (1 hr) post injection): 0.15 ± 0.01 % dose/g
- Biodistribution: Muscle ([1]; 60 min (1 hr) post injection): 0.06 ± 0.00 % dose/g
- Biodistribution: Pancreas ([1]; 60 min (1 hr) post injection): 0.06 ± 0.01 % dose/g
- Biodistribution: Skin ([1]; 60 min (1 hr) post injection): 0.12 ± 0.01 % dose/g
- Biodistribution: Spleen ([1]; 60 min (1 hr) post injection): 0.09 ± 0.01 % dose/g
- bone to blood ratio ([1]; 120 min): 230
- bone to muscle ratio ([1]; 120 min): 411
- Biodistribution: Blood ([1]; 120 min post injection): 0.08 ± 0.02 % dose/g
- Biodistribution: Bone ([1]; 120 min post injection): 17.6 ± 2.61 % dose/g
- Biodistribution: Brain ([1]; 120 min post injection): 0.01 ± 0.01 % dose/g
- Biodistribution: Heart ([1]; 120 min post injection): 0.06 ± 0.01 % dose/g
- Biodistribution: Kidney ([1]; 120 min post injection): 1.41 ± 0.28 % dose/g
- Biodistribution: Liver ([1]; 120 min post injection): 0.14 ± 0.02 % dose/g
- Biodistribution: Lung ([1]; 120 min post injection): 0.12 ± 0.02 % dose/g
- Biodistribution: Muscle ([1]; 120 min post injection): 0.04 ± 0.01 % dose/g
- Biodistribution: Pancreas ([1]; 120 min post injection): 0.04 ± 0.01 % dose/g
- Biodistribution: Skin ([1]; 120 min post injection): 0.12 ± 0.03 % dose/g
- Biodistribution: Spleen ([1]; 120 min post injection): 0.06 ± 0.01 % dose/g
- Hydroxyapatite Binding (%) [2]: 95.8 ± 0.9%

SMILES: O=C([O-])CN(CCN(CC(=O)[O-])Cc1cc(CCC(=O)NC(P(=O)(O)O)P(=O)(O)O)ccc1[O-])Cc1cc(CCC(=O)NC2C(O)OC(CO)C(O)C2O)ccc1[O-].[68Ga+3] (stereo not shown) [[^68Ga]1b]
- bone to blood ratio ([1]; 2 min): 0.9
- bone to muscle ratio ([1]; 2 min): 4.7
- Biodistribution: Blood ([1]; 2 min post injection): 9.22 ± 0.83 % dose/g
- Biodistribution: Bone ([1]; 2 min post injection): 8.34 ± 0.88 % dose/g
- Biodistribution: Brain ([1]; 2 min post injection): 0.20 ± 0.04 % dose/g
- Biodistribution: Heart ([1]; 2 min post injection): 3.01 ± 0.23 % dose/g
- Biodistribution: Kidney ([1]; 2 min post injection): 18.5 ± 2.45 % dose/g
- Biodistribution: Liver ([1]; 2 min post injection): 2.58 ± 0.22 % dose/g
- Biodistribution: Lung ([1]; 2 min post injection): 5.11 ± 0.28 % dose/g
- Biodistribution: Muscle ([1]; 2 min post injection): 1.79 ± 0.28 % dose/g
- Biodistribution: Pancreas ([1]; 2 min post injection): 1.51 ± 0.06 % dose/g
- Biodistribution: Skin ([1]; 2 min post injection): 2.55 ± 0.58 % dose/g
- Biodistribution: Spleen ([1]; 2 min post injection): 2.03 ± 0.13 % dose/g
- bone to blood ratio ([1]; 30 min): 20
- bone to muscle ratio ([1]; 30 min): 68
- Biodistribution: Blood ([1]; 30 min (0.5 hr) post injection): 0.83 ± 0.04 % dose/g
- Biodistribution: Bone ([1]; 30 min (0.5 hr) post injection): 16.6 ± 1.37 % dose/g
- Biodistribution: Brain ([1]; 30 min (0.5 hr) post injection): 0.03 ± 0.01 % dose/g
- Biodistribution: Heart ([1]; 30 min (0.5 hr) post injection): 0.62 ± 0.04 % dose/g
- Biodistribution: Kidney ([1]; 30 min (0.5 hr) post injection): 3.21 ± 1.59 % dose/g
- Biodistribution: Liver ([1]; 30 min (0.5 hr) post injection): 1.20 ± 0.10 % dose/g
- Biodistribution: Lung ([1]; 30 min (0.5 hr) post injection): 1.31 ± 0.29 % dose/g
- Biodistribution: Muscle ([1]; 30 min (0.5 hr) post injection): 0.24 ± 0.03 % dose/g
- Biodistribution: Pancreas ([1]; 30 min (0.5 hr) post injection): 0.24 ± 0.02 % dose/g
- Biodistribution: Skin ([1]; 30 min (0.5 hr) post injection): 0.60 ± 0.02 % dose/g
- Biodistribution: Spleen ([1]; 30 min (0.5 hr) post injection): 0.75 ± 0.22 % dose/g
- bone to blood ratio ([1]; 60 min): 50
- bone to muscle ratio ([1]; 60 min): 147
- Biodistribution: Blood ([1]; 60 min (1 hr) post injection): 0.39 ± 0.06 % dose/g
- Biodistribution: Bone ([1]; 60 min (1 hr) post injection): 19.4 ± 2.05 % dose/g
- Biodistribution: Brain ([1]; 60 min (1 hr) post injection): 0.02 ± 0.01 % dose/g
- Biodistribution: Heart ([1]; 60 min (1 hr) post injection): 0.37 ± 0.02 % dose/g
- Biodistribution: Kidney ([1]; 60 min (1 hr) post injection): 2.65 ± 0.44 % dose/g
- Biodistribution: Liver ([1]; 60 min (1 hr) post injection): 1.15 ± 0.13 % dose/g
- Biodistribution: Lung ([1]; 60 min (1 hr) post injection): 0.96 ± 0.05 % dose/g
- Biodistribution: Muscle ([1]; 60 min (1 hr) post injection): 0.13 ± 0.01 % dose/g
- Biodistribution: Pancreas ([1]; 60 min (1 hr) post injection): 0.11 ± 0.01 % dose/g
- Biodistribution: Skin ([1]; 60 min (1 hr) post injection): 0.26 ± 0.04 % dose/g
- Biodistribution: Spleen ([1]; 60 min (1 hr) post injection): 0.66 ± 0.15 % dose/g
- bone to blood ratio ([1]; 120 min): 82
- bone to muscle ratio ([1]; 120 min): 197
- Biodistribution: Blood ([1]; 120 min post injection): 0.21 ± 0.06 % dose/g
- Biodistribution: Bone ([1]; 120 min post injection): 17.1 ± 3.70 % dose/g
- Biodistribution: Brain ([1]; 120 min post injection): 0.02 ± 0.01 % dose/g
- Biodistribution: Heart ([1]; 120 min post injection): 0.28 ± 0.04 % dose/g
- Biodistribution: Kidney ([1]; 120 min post injection): 2.71 ± 0.17 % dose/g
- Biodistribution: Liver ([1]; 120 min post injection): 1.22 ± 0.07 % dose/g
- Biodistribution: Lung ([1]; 120 min post injection): 0.86 ± 0.03 % dose/g
- Biodistribution: Muscle ([1]; 120 min post injection): 0.09 ± 0.01 % dose/g
- Biodistribution: Pancreas ([1]; 120 min post injection): 0.08 ± 0.01 % dose/g
- Biodistribution: Skin ([1]; 120 min post injection): 0.18 ± 0.01 % dose/g
- Biodistribution: Spleen ([1]; 120 min post injection): 0.53 ± 0.04 % dose/g
- Hydroxyapatite Binding (%) [2]: 91.7 ± 5.6%

Reference: patent publication US10253052B2, “HBED-bisphosphonates, radiometal conjugates and their use as theranostic agents” (Five Eleven Pharma Inc., priority 2015, dated 2019)
